Here are results for one compound from ChEMBL document CHEMBL5729595, “MASP-2 inhibitors and methods of use” (2023).

Structures are written as SMILES. pKi: −log10 of the molar value.

The assay in a line: Enzymatic Assay for MASP-2: The assay was run at room temperature in an assay buffer containing 20 mM Hepes, pH 7.4, 140 mM NaCl and 0.1% Tween 20. Assay parameters were adjusted such that the assay was linear with respect to time, enzyme and substrate concentrations. Under these optimized assays conditions, IC50 values were equivalent to Ki values, except in a few cases of “tight binding” inhibitors. Cases of “tight binding” or possible “slow binding” inhibitors were handled by the methods described in Copeland R. A. (2013) Evaluation of Enzyme Inhibitors in Drug Discovery. 2nd Ed., John Wiley and Sons, Inc., Chapters 5-7.

By pKi is commonly meant −log10 of the Ki, conventionally taken in molar units. Regarding `C[C@H](NC(=O)[C@H]1C[C@H](c2ccccc2)CCN1)C(=O)NCc1ccc(C(=N)N)cc1`, the negative logarithm of the Ki (pKi) was over 6.30.
